The source of these data is publication PMC7168327, “Designed Antimicrobial Peptides for Topical Treatment of Antibiotic Resistant Acne Vulgaris” (Antibiotics, 2020).

Broadly, the MIC is the lowest concentration that inhibits growth of the organism.

For one data set, the system named is C. acnes HL038PA1. Format: cell-based, Cutibacterium acnes. Particulars: C. acnes HL038PA1; RCM broth, anaerobic, 1 × 10^6 CFU per mL, two-fold dilutions 0.5–32 μg/mL, 48 h, OD 600 nm; mean of three replicates. The protocol: (§1) The ten antibiotic resistant C. acnes clinical isolates were acquired from BEI resources with the two reference strains obtained from American Type Culture Collection (ATCC, Manassas, VA, USA). C. acnes is a relatively slow-growing, typically aerotolerant anaerobic so all in vitro C. acnes experiments were performed under anaerobic conditions.
(§2) Single colonies were inoculated in Reinforced Clostridium Medium (RCM) broth supplemented with sodium thioglycolate and incubated at 37 °C, with shaking at 200 rpm, for 2 or 3 days to reach logarithmic growth (OD600nm = 1.0). Each C. acnes (1 × 10^6 CFU per mL) was incubated with dAMP or clindamycin at two-fold serial dilutions (0.5–32 μg per mL) in RCM on a 96-well microplate for 48 h. Three replicas were included for each test article concentration. Bacterial growth was measured by optical density at 600 nm to determine the MIC for each dAMP applied.

For data set [1], the system named is ten C. acnes clinical isolates and two C. acnes ATCC reference strains. The data set is classed as cell-based, Cutibacterium acnes. The method, then: as §1, §2
The next data set relates to C. acnes HL082PA2. The data set is classed as cell-based, Cutibacterium acnes. Particulars: C. acnes HL082PA2; RCM broth, anaerobic, 1 × 10^6 CFU per mL, two-fold dilutions 0.5–32 μg/mL, 48 h, OD 600 nm; mean of three replicates. The method, then:
as §1, §2

Another data set relates to C. acnes HL053PA1. Format: cell-based, Cutibacterium acnes. The conditions noted are these: C. acnes HL053PA1; RCM broth, anaerobic, 1 × 10^6 CFU per mL, two-fold dilutions 0.5–32 μg/mL, 48 h, OD 600 nm; mean of three replicates. The method, then:
as §1, §2

Data set [2] relates to C. acnes HL043PA2. Format: cell-based, Cutibacterium acnes. Particulars: C. acnes HL043PA2 (multi-drug resistant); RCM broth, anaerobic, 1 × 10^6 CFU per mL, two-fold dilutions 0.5–32 μg/mL, 48 h, OD 600 nm; mean of three replicates. The protocol:
as §1, §2

A further data set concerns C. acnes ATCC6919. Format: cell-based, Cutibacterium acnes. The conditions noted are these: C. acnes ATCC6919; RCM broth, anaerobic, 1 × 10^6 CFU per mL, two-fold dilutions 0.5–32 μg/mL, 48 h, OD 600 nm; mean of three replicates. The protocol: as §1, §2
The next data set deals with C. acnes HL045PA1. The data set is classed as cell-based, Cutibacterium acnes. The conditions noted are these: C. acnes HL045PA1; RCM broth, anaerobic, 1 × 10^6 CFU per mL, two-fold dilutions 0.5–32 μg/mL, 48 h, OD 600 nm; mean of three replicates. The protocol: as §1, §2
Data set [3] has as its system bioluminescent human immortalized keratinocytes (HaCaT). Description: Mammalian cytotoxicity, bioluminescent human keratinocytes. Format: cell-based. The conditions noted are these: bioluminescent HaCaT. The protocol:
(§3) Noninvasive and real-time monitoring of mammalian cytotoxicity to assess the potential skin toxicity of the dAMPs was evaluated using bioluminescent human immortalized keratinocytes (HaCaT, AddexBio, San Diego, CA, USA). The bioluminescent variant of HaCaT was constructed by transfection with a luciferase gene (RediFect Red-Fluc-Puromycin, Cat# CL596002). Keratinocytes (1 × 10^4 cells, 100 μL) were plated in 96-well black-walled plates. The candidate dAMPs were 2-fold serially diluted from 1024 µg/mL in growth medium supplemented with 150 µg/mL D-luciferin. Each concentration was performed in triplicate, with the final volume being 200 μL. Imaging was performed at select times (0, 15, and 30 min and 1, 3, 5, and 8 h) after the addition of the dAMP, and compared to concurrently run vehicle-control, using an IVIS Lumina imaging system (Caliper Life Sciences, Inc., Hopkinton, MA, USA). For imaging, the 96-well plate was positioned on the stage (12.5-cm field of view), with an open emission filter, binning of 4, and f-stop 1 and a 1-min exposure time. Data analysis was performed using the Living Image software program (version 4.3, Caliper Life Sciences, Inc.). The dAMP concentrations required to kill 10% and 50% of keratinocytes were determined using GraphPad Prism 7 (GraphPad Software, San Diego, CA, USA).

The test system of data set [4] is C. acnes HL043PA2 compared to human keratinocytes. Format: cell-based. The method, then:
In evaluating the clinical utility of each of the candidate dAMPs for C. acnes treatment, the Therapeutic Index was determined. The Therapeutic Index is defined as the ratio of concentration at which the dAMP is active against the prokaryotic C. acnes pathogen without inducing cytotoxic damage to the surrounding mammalian cells. The EC10 and EC50 doses, defined as the concentrations required to kill 10% and 50% respectively of human keratinocytes following 8 h incubation with each of the Riptide dAMPs, are tabulated and graphed in Table 2 and Figure 3, respectively. The larger the Therapeutic Index, the greater the specificity of the dAMP for destroying C. acnes cells.
as §2, §3

In data set [5] the test system is C. acnes HL043PA2. Description: Multidrug-resistant C. acnes intradermal murine infection model. Format: in vivo. Particulars: topical 25 μL, BALB/c mice; for mean bacterial burden in skin (CFU/g): 7 applications 2–74 h post infection, skin harvested at 96 h, n = 6. The method, then: All animals received care in compliance with the Guide for the Care and Use of Laboratory Animals (8th Edition, National Institutes of Health Publication, 2011). All studies were approved by the Institutional Animal Care and Use Committee. Female BALB/c mice, 5 to 7 weeks, were obtained from Envigo Laboratories Inc (Indianapolis, IN, USA). General anesthesia consisted of an intraperitoneal injection of ketamine 100 mg/kg and xylazine 10 mg/kg (Vedco, Inc., St. Joseph, MO, USA).
Mice were inoculated via intradermal (ID) injection of the antibiotic-resistant C. acnes HL043PA2 (7.0 log10 CFU, 50 μL, BEI Resources, HM-514, [14]). The day prior to infection, each mouse was anesthetized using isoflurane, and an area of approximately 1″ × 1″ of skin on the dorsal area of each mouse was shaved and cleared of hair using the depilatory agent Nair®. Beginning 2 h after infection, mice were anesthetized and RP556, formulated in 2% hydroxypropyl methylcellulose in water, viscosity 3000–5600 cP, or 40 mg/mL clindamycin (4%) was administered topically, at 25 μL twice daily for a total of 7 applications (2, 14, 26, 38, 50, 62 and 74 h post infection). Abscesses were harvested at 96 h post-challenge (or Day 7 for untreated control) and assessed for bacterial CFU per gram of skin tissue.

In brackets after ≈: the same amount, converted by molar mass. Entries after “also recorded” stand apart in the source; their conditions may differ. Bridge positions count the residues as written; N and C are the ends. Peptide text beside a SMILES is read from it.

With `CC[C@H](C)[C@@H]1NC(=O)CNC(=O)[C@H](CCCCN)NC(=O)[C@H](Cc2ccc(O)cc2)NC(=O)[C@@H]2CSSC[C@H](NC1=O)C(=O)N[C@@H](Cc1ccc(O)cc1)C(=O)N[C@@H](CCCCN)C(=O)N[C@@H](CCCCN)C(=O)N[C@H](C(=O)N[C@@H](CCCCN)C(N)=O)CSSC[C@H](NC(=O)[C@H](Cc1c[nH]c3ccccc13)NC(=O)[C@@H](N)CCCNC(=N)N)C(=O)N[C@@H](Cc1ccccc1)C(=O)N[C@@H](CCCCN)C(=O)N[C@@H](C(C)C)C(=O)N2` [RP556] (H-RWCFKVCYKGICYKKCK-NH2; disulfide 3-16, 7-12), the MIC was found to be 4 mg/L (≈ 1.86 µM) in the data set with C. acnes HL038PA1; 2 mg/L (≈ 0.929 µM) against C. acnes HL082PA2; 4 mg/L (≈ 1.86 µM) in the data set on C. acnes HL053PA1; 4 mg/L (≈ 1.86 µM) in the data set with C. acnes HL043PA2 [2]; 4 mg/L (≈ 1.86 µM) with C. acnes ATCC6919; 4 mg/L (≈ 1.86 µM) with C. acnes HL045PA1. Moreover, in data set [1] (0.5–32 μg/mL concentration range evaluated), the “in vitro anti-bacterial activity against the C. acnes bacterial strains (in words)” value is listed as “most active”. The “MIC values against all C. acnes isolates” value in data set [1] (span over ten antibiotic resistant isolates and two ATCC reference strains) is 2 to 8 mg/L. Further, the “viability of human keratinocytes” value in [3] (8 h incubation at 256 μg/mL) is listed as “greater than 80%”. For the same compound, in [3] (1 × 10^4 cells/well, 8 h incubation, 2-fold dilutions from 1024 µg/mL, triplicate, IVIS imaging, GraphPad Prism 7), the “EC10, concentration required to kill 10% of human keratinocytes” value came to 276 mg/L. The “Therapeutic Index (EC10 / MIC)” value in data set [4] (keratinocyte EC10 (8 h) versus MIC against HL043PA2 C. acnes) is 70. For the same compound, the “Therapeutic Index (EC50 / MIC)” value in data set [4] (keratinocyte EC50 (8 h) versus MIC against HL043PA2 C. acnes) amounted to 130. Besides, the “mean bacterial burden in skin (CFU/g)” value is “below the detectable limit; also recorded: completely eliminated C. acnes infection” with C. acnes HL043PA2 [5] (RP556 5 mg/mL (0.5%) in 2% hydroxypropyl methylcellulose) and “below the detectable limit” with C. acnes HL043PA2 [5] (RP556 20 mg/mL in 2% hydroxypropyl methylcellulose). The “clinical observations and body weight following treatment” value in the data set with C. acnes HL043PA2 [5] (5 and 20 mg/mL, 7 applications) is “no untoward clinical observations or changes in body weight”.
